Measured values as given in patent publication US12084472B2 (Ardelyx, Inc., priority 2015, dated 2024).

Target: T1, human TGR5 (Homo sapiens, UniProt Q8TDU6)
T1 construct: expressed in transfected cells; host or cells: HEK293
T1 sequence (Q8TDU6 1-330): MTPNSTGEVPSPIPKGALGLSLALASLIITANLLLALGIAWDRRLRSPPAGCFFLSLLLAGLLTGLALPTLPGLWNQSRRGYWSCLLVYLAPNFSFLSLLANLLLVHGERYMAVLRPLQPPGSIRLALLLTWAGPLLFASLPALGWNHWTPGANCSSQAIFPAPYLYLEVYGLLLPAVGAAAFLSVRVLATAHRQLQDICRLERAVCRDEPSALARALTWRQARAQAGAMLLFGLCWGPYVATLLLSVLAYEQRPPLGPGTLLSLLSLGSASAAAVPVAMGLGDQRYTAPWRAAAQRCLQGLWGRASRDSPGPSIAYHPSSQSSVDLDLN
Assay: Cell-based TGR5 assay (cAMP generation, HTRF)
Conditions: HEK293 cells stably transfected with human TGR5; cAMP by HTRF; 30 minutes at 37° C.; read-out: pEC50 Human TGR5 (converted)
Method in brief: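 Read-out was HTRF detection of cAMP, converted to concentration via a standard curve and fitted (3-parameter logistic) for pEC50 and maximal response. Agonist stimulation used HEK293 cells stably transfected with human TGR5, incubated 30 min at 37° C in IBMX-containing buffer at 0.05 nM to 10 μM compound.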

EC50 [µM] | SMILES
< 0.1 | O=C(CCCC1CN(S(=O)(=O)c2ccc(Cl)c(COC3(c4cnccc4-c4ccccc4OC4CC4)CC3)c2)C1)NC[C@H](O)[C@@H](O)[C@H](O)[C@H](O)CO [Compound I-453, 4-{1-[4-chloro-3-({1-[4-(2-cyclopropoxyphenyl)pyridin-3-yl]cyclopropoxy}methyl)benzenesulfonyl]azetidin-3-yl}-N-[(2S,3R,4R,5R)-2,3,4,5,6-pentahydroxyhexyl]butanamide]
< 0.1 | CS(=O)(=O)CCN(CCCCNS(=O)(=O)c1ccc(Cl)c(COC2(c3cnccc3-c3ccccc3OC3CC3)CC2)c1)C(=O)[C@@H](O)[C@@H](O)[C@H](O)[C@@H](O)CO [Compound I-457, (2S,3S,4R,5S)-N-{4-[4-chloro-3-({1-[4-(2-cyclopropoxyphenyl)pyridin-3-yl]cyclopropoxy}methyl)benzenesulfonamido]butyl}-2,3,4,5,6-pentahydroxy-N-(2-methanesulfonylethyl) hexanamide]
< 0.1 | CN(CCCCNC(=O)[C@@H](O)[C@@H](O)[C@H](O)[C@@H](O)CO)S(=O)(=O)c1ccc(Cl)c(COC2(c3cnccc3-c3ccccc3OC3CC3)CC2)c1 [Compound I-458, (2S,3S,4R,5S)-2,3,4,5,6-pentahydroxy-N-{4-[N-methyl4-chloro-3-({1-[4-(2-cyclopropoxyphenyl)pyridin-3-yl]cyclopropoxy}methyl)benzenesulfonamido]butyl}hexanamide]
< 0.1 | CN(CCCCN(CCS(C)(=O)=O)C(=O)[C@@H](O)[C@@H](O)[C@H](O)[C@@H](O)CO)S(=O)(=O)c1ccc(Cl)c(COC2(c3cnccc3-c3ccccc3OC3CC3)CC2)c1 [Compound I-459, (2S,3S,4R,5S)-2,3,4,5,6-pentahydroxy-N-(2-methanesulfonylethyl)-N-{4-[N-methyl4-chloro-3-({1-[4-(2-cyclopropoxyphenyl)pyridin-3-yl]cyclopropoxy}methyl)benzenesulfonamido]butyl}hexanamide]
< 0.1 | CN(CCCCNS(=O)(=O)c1ccc(Cl)c(COC2(c3cnccc3-c3ccccc3OC3CC3)CC2)c1)C(=O)[C@@H](O)[C@@H](O)[C@H](O)[C@@H](O)CO [Compound I-460, (2S,3S,4R,5S)-N-{4-[4-chloro-3-({1-[4-(2-cyclopropoxyphenyl)pyridin-3-yl]cyclopropoxy}methyl)benzenesulfonamido]butyl}-2,3,4,5,6-pentahydroxy-N-methylhexanamide]
< 0.1 | CN(CCCCN(C)S(=O)(=O)c1ccc(Cl)c(COC2(c3cnccc3-c3ccccc3OC3CC3)CC2)c1)C(=O)[C@@H](O)[C@@H](O)[C@H](O)[C@@H](O)CO [Compound I-461, (2S,3S,4R,5S)-2,3,4,5,6-pentahydroxy-N-methyl-N-{4-[N-methyl4-chloro-3-({1-[4-(2-cyclopropoxyphenyl)pyridin-3-yl]cyclopropoxy}methyl)benzenesulfonamido]butyl}hexanamide]
< 0.1 | CCN(CCCCN)S(=O)(=O)c1ccc(Cl)c(COC2(c3cnccc3-c3ccccc3OC3CC3)CC2)c1 [Compound I-463, N-(4-aminobutyl)-4-chloro-3-({1-[4-(2-cyclopropoxyphenyl)pyridin-3-yl]cyclopropoxy}methyl)-N-ethylbenzene-1-sulfonamide]
< 0.1 | CN(CCCCNC(=O)NC[C@H](O)[C@@H](O)[C@H](O)[C@H](O)CO)S(=O)(=O)c1ccc(Cl)c(COC2(c3cnccc3-c3ccccc3OC3COC3)CC2)c1 [Compound I-464, 1-(4-{N-methyl4-chloro-3-[(1-{4-[2-(oxetan-3-yloxy)phenyl]pyridin-3-yl}cyclopropoxy)methyl]benzenesulfonamido}butyl)-3-[(2S,3R,4R,5R)-2,3,4,5,6-pentahydroxyhexyl]urea]
< 0.1 | CCN(CCCCNC(=O)N[C@@H](CO)[C@@H](O)[C@H](O)[C@H](O)CO)S(=O)(=O)c1ccc(Cl)c(COC2(c3cnccc3-c3ccccc3OC3CC3)CC2)c1 [Compound I-465, 1-{4-[N-ethyl4-chloro-3-({1-[4-(2-cyclopropoxyphenyl)pyridin-3-yl]cyclopropoxy}methyl)benzenesulfonamido]butyl}-3-[(2S,3R,4S,5R)-1,3,4,5,6-pentahydroxyhexan-2-yl]urea]

Further lines, the compound ahead of its results:

SMILES | EC50 [µM]
O=C(COC1CN(S(=O)(=O)c2ccc(Cl)c(COC3(c4cnccc4-c4ccccc4OC4CC4)CC3)c2)C1)NC[C@H](O)[C@@H](O)[C@H](O)[C@H](O)CO [Compound I-454, 2-({1-[4-chloro-3-({1-[4-(2-cyclopropoxyphenyl)pyridin-3-yl]cyclopropoxy}methyl)benzenesulfonyl]azetidin-3-yl}oxy)-N-[(2S,3R,4R,5R)-2,3,4,5,6-pentahydroxyhexyl]acetamide] | 0.126 to 1
O=C(COCC1CCN(S(=O)(=O)c2ccc(Cl)c(COC3(c4cnccc4-c4ccccc4OC4CC4)CC3)c2)C1)NC[C@H](O)[C@@H](O)[C@H](O)[C@H](O)CO (stereo partly drawn) [Compound I-455, 2-({1-[4-chloro-3-({1-[4-(2-cyclopropoxyphenyl)pyridin-3-yl]cyclopropoxy}methyl)benzenesulfonyl]pyrrolidin-3-yl}methoxy)-N-[(2S,3R,4R,5R)-2,3,4,5,6-pentahydroxyhexyl]acetamide] | < 0.1
O=C(COCC1CN(S(=O)(=O)c2ccc(Cl)c(COC3(c4cnccc4-c4ccccc4OC4CC4)CC3)c2)C1)NC[C@H](O)[C@@H](O)[C@H](O)[C@H](O)CO [Compound I-456, 2-({1-[4-chloro-3-({1-[4-(2-cyclopropoxyphenyl)pyridin-3-yl]cyclopropoxy}methyl)benzenesulfonyl]azetidin-3-yl}methoxy)-N-[(2S,3R,4R,5R)-2,3,4,5,6-pentahydroxyhexyl]acetamide] | < 0.1
O=C(NCCC1CCN(S(=O)(=O)c2ccc(Cl)c(COC3(c4cnccc4-c4ccccc4OC4CC4)CC3)c2)CC1)[C@@H](O)[C@@H](O)[C@H](O)[C@@H](O)CO [Compound I-462, (2S,3S,4R,5S)-N-(2-{1-[4-chloro-3-({1-[4-(2-cyclopropoxyphenyl)pyridin-3-yl]cyclopropoxy}methyl)benzenesulfonyl]piperidin-4-yl}ethyl)-2,3,4,5,6-pentahydroxyhexanamide] | < 0.1
CN(CCCCNC(=O)NC[C@H](O)[C@@H](O)[C@H](O)[C@H](O)CO)S(=O)(=O)c1cc(COC2(c3cnccc3-c3ccccc3OC3CC3)CC2)c(Cl)cc1F [Compound I-466, 1-{4-[N-methyl4-chloro-5-({1-[4-(2-cyclopropoxyphenyl)pyridin-3-yl]cyclopropoxy}methyl)-2-fluorobenzenesulfonamido]butyl}-3-[(2S,3R,4R,5R)-2,3,4,5,6-pentahydroxyhexyl]urea] | < 0.1
CN(CCCCNC(=O)NC[C@H](O)[C@@H](O)[C@H](O)[C@H](O)CO)S(=O)(=O)c1cc(COC2(c3cnccc3-c3ccccc3OC3CC3)CC2)c(Cl)cc1Cl [Compound I-467, 1-{4-[N-methyl2,4-dichloro-5-({1-[4-(2-cyclopropoxyphenyl)pyridin-3-yl]cyclopropoxy}methyl)benzenesulfonamido]butyl}-3-[(2S,3R,4R,5R)-2,3,4,5,6-pentahydroxyhexyl]urea] | < 0.1
CN(CCCCNC(=O)NC[C@H](O)[C@@H](O)[C@H](O)[C@H](O)CO)S(=O)(=O)c1ccc(C(F)(F)F)c(CNC2(c3cnccc3-c3ccccc3OC3CC3)CC2)c1 [Compound I-468, 1-(4-{N-methyl3-[({11-[4-(2-cyclopropoxyphenyl)pyridin-3-yl]cyclopropyl}amino)methyl]-4-(trifluoromethyl)benzenesulfonamido}butyl)-3-[(2S,3R,4R,5R)-2,3,4,5,6-pentahydroxyhexyl]urea] | 0.126 to 1
CN(CCCCNC(=O)NC[C@H](O)[C@@H](O)[C@H](O)[C@H](O)CO)S(=O)(=O)c1ccc(C(F)(F)F)c(COC2(c3cnccc3-c3ccccc3OC3CC3)CC2)c1 [Compound I-469, 1-{4-[N-methyl3-({1-[4-(2-cyclopropoxyphenyl)pyridin-3-yl]cyclopropoxy}methyl)-4-(trifluoromethyl)benzenesulfonamido]butyl}-3-[(2S,3R,4R,5R)-2,3,4,5,6-pentahydroxyhexyl]urea] | < 0.1
CN(CCCCNC(=O)N[C@@H](CO)[C@@H](O)[C@H](O)[C@H](O)CO)S(=O)(=O)c1ccc(C(F)(F)F)c(CNC2(c3cnccc3-c3ccccc3OC3CC3)CC2)c1 [Compound I-470, 1-(4-{N-methyl3-[({1-[4-(2-cyclopropoxyphenyl)pyridin-3-yl]cyclopropyl}amino)methyl]-4-(trifluoromethyl)benzenesulfonamido}butyl)-3-[(2S,3R,4S,5R)-1,3,4,5,6-pentahydroxyhexan-2-yl]urea] | 0.126 to 1
CN(CCCCNC(=O)NC[C@H](O)[C@@H](O)[C@H](O)[C@H](O)CO)S(=O)(=O)c1ccc(Cl)c(CNC2(c3cnccc3-c3ccccc3OC3CC3)CC2)c1 [Compound I-471, 1-(4-{N-methyl4-chloro-3-[({1-[4-(2-cyclopropoxyphenyl)pyridin-3-yl]cyclopropyl}amino)methyl]benzenesulfonamido}butyl)-3-[(2S,3R,4R,5R)-2,3,4,5,6-pentahydroxyhexyl]urea] | < 0.1
CN(CCCCNC(=O)N[C@@H](CO)[C@@H](O)[C@H](O)[C@H](O)CO)S(=O)(=O)c1ccc(Cl)c(CNC2(c3cnccc3-c3ccccc3OC3CC3)CC2)c1 [Compound I-472, 1-(4-{N-methyl4-chloro-3-[({1-[4-(2-cyclopropoxyphenyl)pyridin-3-yl]cyclopropyl}amino)methyl]benzenesulfonamido}butyl)-3-[(2S,3R,4S,5R)-1,3,4,5,6-pentahydroxyhexan-2-yl]urea] | < 0.1
